According to patent publication US12173320B2, “Production of red blood cells and platelets from stem cells” (BOSTON MEDICAL CENTER CORPORATION, priority 2012, dated 2024):
Read-outs that look alike come from different tables or passages of the source.

What was measured:
Assay type in all cases: cell-based, human
[1] = system: AhR (CYP1B1 target gene expression) in iPSCs; assay: Quantitative RT-PCR of AhR target gene CYP1B1 in iPSCs
Experimental: RNA was extracted using the RNeasy kit (Qiagen) according to the manufacturer's instructions and DNase treated using the DNA-free kit (Ambion AM1906). Reverse transcription into cDNA was performed using the High Capacity cDNA Reverse Transcription Kit (Applied Biosystems 4368814). Quantitative (real time) PCR amplification of cDNA was performed using Taqman probes for AHR (Hs00169233 ml), CYP1B1 (Hs002382916 sl), HBA (Hs00361191 gl), HBB (Hs00758889 sl), HBG (Hs01629437 sl), vWF (Hs00169795 ml), PF4 (Hs00427220 gl), NF-E2 (Hs00232351 ml) and CD62P (Hs00927900 ml) and run on the Applied Biosystems StepOne machine. […]
To characterize AhR expression and functionality in both undifferentiated iPSCs and directly differentiated MEPs, AhR protein levels were determined via Western blot in these populations. AhR receptor was robustly expressed in day 30 and day 60 MEPs (FIG. 4A). However, AhR protein was not detected by western blotting in iPSC populations, and we postulated that AhR was expressed at extremely low levels in iPSCs, i.e., below the level of detectability with the antibodies used for Western blots. To test this hypothesis, the ability of FICZ to induce a prototypic AhR-target gene, CYPIB1, in iPSCs or, as a positive control, MEPs was assessed by quantitative RT-PCR.

iPSC-derived MEPs [2] = assay: Live versus dead cell FACS (propidium iodide vs. Hoechst) of MEPs; settings: pre-treated for 24 hours with 5 μM CH223191 before FICZ
Experimental: (§1) 6-formylindolo[3,2-b]carbazole (FICZ), an AHR small molecule agonist, and CH223191, an AHR competitive inhibitor were used for these assays. CH223191 was added to mesoderm cultures at Day 6 at 5 μM (lx) and 2.504 (0.5×). 0.2 μM FICZ was added to cultures at Day 7 and media was added daily. DMSO was used as a vehicle control.
(§2) Roughly 10^5 cells were collected, spun, and re-suspended in 0.5% BSA in PBS. Samples were incubated for 30 min at ambient temperature with human antibodies including CD41a-FITC (BD 555466), CD235-PE (BD 555570), CD71-FITC (BD 555536), washed and spun at 3300 rpm for 7 min, and re-suspended in 0.5% BSA in PBS with 1 ug/ml Propidium Iodide. Samples were run on a BD FACScalibur using Cellquest Pro software and analyzed via FloJo 8.7. For ploidy analysis, cells were treated with 1.5% NP-40 (Boston Bioproducts P-872) and 62.5 ug/ml Propidium Iodide in PBS immediately before FACScalibur interrogation. For murine bone marrow, samples were first incubated for 5 min at ambient temperature with murine conjugated antibody CD16/32 (BD 553142) before a 30 min incubation with c-Kit-PE (BD 553355), CD41a-FITC (BD 553848), Ter119-PE (BD 553673). For cell viability assays, 2-3×10 ^5 cells were collected, re-suspended in 8.8 ug/ml Hoecsht 33342 in PBS supplemented with 5% FBS. Samples were then incubated in the dark at 37° C. for 15 min, washed, and re-suspended in 1 ug/ml Propidium Iodide in 5% FBS. Samples were run on an LSR-II machine with FACSDiva software and analyzed via FloJo 8.7.
In order to determine whether FICZ-mediated transactivation of the AhR receptor was responsible for the exponential expansion of iPSC-derived MEPs, the previously described Hoecsht/Propidium Iodide apoptosis assay was performed using the known AhR inhibitor CH223191. As previously shown in FIG. 3, fewer cells stained with propidium iodide after FICZ treatment (e.g., 15.5% vs. 8.09%) (FIG. 5E). […] The efficacy of the CH223191 was confirmed by its ability to block CY1^31B1 induction as assayed by qRT-PCR (FIG. 5F).

iPSC-derived MEPs [3] = assay: Growth / expansion of MEP cultures (manual counts, trypan blue exclusion)
Experimental: Plots were gated first in FSC vs. SSC and then from that population for PI ‘ and PE Hoechst’. […] (B) Representative phase contrast images of MEP population+FICZ. (C) Growth curve of day 15 MEPs+/−[…] FICZ. Cells were counted manually using trypan blue exclusion. Graphical data and the associated statistics are the result of three independent experiments per group.
High passage iPSCs were plated onto matrigel coated 6-well plates in iPSC media conditioned on iMEFs for 24 hours and supplemented with 2 ng/ml Rho Kinase Inhibitor and 20 ng/ml bFGF. After two days, iPSC media was replaced with Mesoderm DO-1 media: RPMI (Invitrogen A1049101) supplemented with 5 ng/mlhBMP-4 (R&D 314-BP-010), 50 ng/ml hVEGF (R&D 293-VE-010), 25 ng/mlhWnt3a (R&D 287-TC-500) and 10% KOSR. At Day 2, Mesoderm DO-1 media was replaced with Mesoderm D2 media: RPMI supplemented with 5 ng/ml hBMP-4, 50 ng/mlhVEGF, 20 ng/ml bFGF and 10% KOSR. Mesoderm D3 media consisted of the following: StemPro 34 (Invitrogen 10639011), 5 ng/ml hBMP-4, 50 ng/mlhVEGF, and 20 ng/ml bFGF. Mesoderm media for days 4 and 5 consisted of: StemPro 34, 15 ng/mlhVEGF, and 5 ng/ml bFGF. Day 6 mesoderm media: 74% IMDM (Invitrogen 12330061), 24% Hams F12 (Mediatech 10-080-CV), 1% B27 supplement (Invitrogen 12587-010), 0.5% N2-supplement (Invitrogen 17502-048), 0.5% BSA (Sigma A3059), 50 ng/ml hVEGF, 100 ng/mlbFGF, 100 ng/ml hSCF (R&D 255-SC-010), 25 ng/ml hFlt3 Ligand (R&D 308-FKN-005). Day 7 media: 74% IMDM, 24% Hams F12, 1% B27 supplement, 0.5% N2-supplement, 0.5% BSA, 50 ng/ml hVEGF, 100 ng/ml bFGF, 100 ng/ml hSCF, 25 ng/ml hFlt3 Ligand, 50 ng/ml hTPO (Genentech G140BT), 10 ng/ml IL-6 (R&D 206-IL-010), 0.5 U/ml hEPOgen and 0.2 uM 6-formylindolo[3,2-b]carbazole (FICZ) (Santa Cruz SC300019). After Day 7, 0.5 ml of Day 7 media was added to the culture daily without aspirating the media from the previous day. All base media mixes included 2 mM L-Glutamine (Invitrogen 25030081), 4×10^-4M Monothioglycerol (Sigma M1753), 100 ug/ml Primocin, and 50 ug/ml Ascorbic Acid. Cells in suspension were collected and assayed at Days 10-13 or split for long-term culture.
as §1

[4] = system: AhR (CYP1B1 target gene expression) in MEPs; assay: Quantitative RT-PCR of AhR target gene CYP1B1 in MEPs
Experimental: as §1
RNA was extracted using the RNeasy kit (Qiagen) according to the manufacturer's instructions and DNase treated using the DNA-free kit (Ambion AM1906). Reverse transcription into cDNA was performed using the High Capacity cDNA Reverse Transcription Kit (Applied Biosystems 4368814). Quantitative (real time) PCR amplification of cDNA was performed using Taqman probes for AHR (Hs00169233 ml), CYP1B1 (Hs002382916 sl), HBA (Hs00361191 gl), HBB (Hs00758889 sl), HBG (Hs01629437 sl), vWF (Hs00169795 ml), PF4 (Hs00427220 gl), NF-E2 (Hs00232351 ml) and CD62P (Hs00927900 ml) and run on the Applied Biosystems StepOne machine. Relative gene expression was normalized to B-actin (Hs99999903 ml).
To characterize AhR expression and functionality in both undifferentiated iPSCs and directly differentiated MEPs, AhR protein levels were determined via Western blot in these populations. […] To test this hypothesis, the ability of FICZ to induce a prototypic AhR-target gene, CYPIB1, in iPSCs or, as a positive control, MEPs was assessed by quantitative RT-PCR.

AhR = assay: Lentiviral AhR reporter (MMTV-DRE dsRed / luciferase) in MEPs; settings: day 30 MEPs, 0.2 μM FICZ plus 5 μM CH223191
iPSC-derived MEPs [5] = assay: Immunophenotyping of MEP lineage specification (CD235, CD71, CD41 FACS); settings: day 30 MEPs, basal cytokine conditions, versus vehicle
Experimental: as §2
In our previous studies in which we noted exponential expansion of iPSC-derived MEPs (FIG. 3), the AhR-mediated effect that we noted allowed us to culture cells for extended periods of time (>120 days). […]

For Clc1cc2c(cc1Cl)Oc1cc(Cl)c(Cl)cc1O2 [TCDD, 2,3,7,8-tetrachlorodibenzo(p)dioxin], the “responsiveness to AhR agonist (CYP1B1 RT-PCR)” value (“responsiveness to AhR agonist” for short) ([1]; iPSC treated for 4 days, normalized to GAPDH) was “responsive”.
Cc1ccccc1N=Nc1ccc(NC(=O)c2ccnn2C)c(C)c1 [CH223191, 2-methyl-2H-pyrazole-3-carboxylic acid (2-methyl-4-o-tolylazo-phenyl)-amide] was tested, and the “percentage of PI+ cells, vehicle versus FICZ-treated cultures” value (iPSC-derived MEPs [2]) was “approximately the same”, the “expansion of MEPs” value (iPSC-derived MEPs [3]; 2.5 μM CH223191 pre-treatment before addition of FICZ) was “still capable of expansion” and the “expansion of MEPs” value (iPSC-derived MEPs [3]; 5 μM CH223191 pre-treatment + FICZ) was “No significant expansion”. The “CYP1B1 induction by FICZ” value ([4]; MEPs pretreated with CH223191 at D6, FICZ at D7) was “block”, the DsRed reporter expression (AhR) was “significant decrease” and the “CD41+ megakaryocyte-lineage cells” value (iPSC-derived MEPs [5]) was “small but defined population”.
For O=c1cc(-c2ccccc2)oc2ccc3ccccc3c12 [(3-NF, P-naphtoflavone], the “responsiveness to AhR agonist” value [1] was “responsive” and the “responsiveness to AhR agonist” value ([4]; MEP, normalized to GAPDH) was “responsive”.
